Assay results published in US20220118037A1, “METHOD FOR IMPROVING SARCOPENIA BY USING PHELLINUS LINTEUS” (GRAPE KING BIO LTD, priority 2020, published 2022).
Marks after values point to notes of the source that are not given here.

Test system: C2C12 cell line
Assay: Dexamethasone-induced sarcopenia model in differentiated C2C12 myotubes, diameters of the myotubes (H&E stain, Image-Pro Plus)
Assay type: cell-based, mouse
Conditions: 10 μM dexamethasone alone in 0.1% DMSO, 24 hours, C2C12 myotubes (negative control group)
Source text: Mouse skeletal myocytes (i.e., C2C12 cell line) were utilized to establish a sarcopenia model. An artificially synthetic corticosteroid, dexamethasone was utilized to establish the sarcopenia model. Dexamethasone could inhibit the immune system and thus was utilized as an anti-inflammation drug or an allergy drug. […] Thus, dexamethasone was used to induce muscular dystrophy for simulating sarcopenia in this Example. First, a growth medium [Dulbecco's modified minimal essential medium (DMEM) including 10% fetal bovine serum] was utilized to culture the C2C12 cell line under 37° C., 5% CO2, in which the start density of the C2C12 cell line was 1×10^5 to 2×10^5 cells/mL. […] The diameters of the myotubes were measured by using a commercial software (Image-Pro Plus software), and the results of statistical analysis on the diameters of the myotubes were shown in Table 1, in which the statistic method used to analyze the percentage of each items was paired sample t-test, and the symbols “#” and “*” represented significant differences compared to the blank control group and negative control group (p<0.05, n=60), respectively.

C[C@@H]1C[C@H]2[C@@H]3CCC4=CC(=O)C=C[C@]4(C)[C@@]3(F)[C@@H](O)C[C@]2(C)[C@@]1(O)C(=O)CO [dexamethasone]
Diameters of the myotubes: 19.98 ± 6.42# μm
